The record followed here is PubChem BioAssay (NCI).

What all share (test): DTP human tumour cell line panel, 48 h
The test system of test [1] is 786-0 renal.
Test [2] has as its system CAKI-1 renal.
In test [3] the test system is DU-145 prostate.
Test [4] concerns HOP-62 NSCLC.
Test [5] concerns HOP-92 NSCLC.
For test [6], the system named is IGROV1 ovarian.
In test [7] the test system is MDA-MB-231 breast.
Test [8] deals with OVCAR-3 ovarian.
Test [9] concerns RXF 393 renal.
The test system of test [10] is SF-295 CNS.

The structures appear in SMILES notation.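 Assay format: 96-well plates, 48-hour exposure. At the GI50, growth is halved. Definition used: TGI = concentration required for complete inhibition of growth.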

As for `Cc1ccc(Sc2cc3c(oc2=O)-c2ccccc2OC3O)cc1` (stereo not given), the GI50 in test [1] is 24.3 µM; in test [2] it was 32 µM; in [3] it was 21.8 µM; in [4], 22.5 µM; in [5] it was 23.4 µM; in test [6] it was 22.4 µM. Moreover, the GI50 in test [7] was 28.8 µM; in test [8], 33.3 µM; in test [9], 26.8 µM; in test [10] it was 30.2 µM. Moreover, the TGI came to 51.6 µM in test [1]; 78.1 µM in test [2]; 45.2 µM in test [3]; 44.7 µM in [4]; 51.9 µM in test [5]; 49.2 µM in test [6]. Also, the TGI in test [7] is 71.2 µM; in test [8], 91.4 µM; in [9], 62.2 µM; in [10], 67.5 µM.
On to `CC(C)=CCCC(C)C1=C(O)C(=O)C(C)=CC1=O` (stereo not given), for which the TGI in test [1] was 26.9 µM; in [2] it was 15.1 µM; in [3] it was 33.3 µM; in test [4], 36.9 µM; in [5] it was 3.67 µM; in test [6], 32.8 µM. Moreover, the TGI in test [7] was 7.94 µM; in [8], 18.3 µM; in test [9] it was 17.8 µM; in test [10] it was > 100 µM.
For `Cc1c([N+](=O)[O-])oc2ccc3ccccc3c12`, the TGI in [1] was > 100 µM; in [2] it was > 100 µM; in [3], 83.7 µM; in test [4], > 100 µM; in test [5], > 100 µM; in [6], > 100 µM. Moreover, the TGI in test [7], in test [8], in test [9] and in test [10] was > 100 µM each time.
On to `O=C(c1ccccc1)c1c(C(F)(F)F)n([O-])c2ccc(C(F)(F)F)cc2[n+]1=O`, for which the GI50 is 0.167 µM in test [1]; 0.193 µM in test [2]; 0.289 µM in [3]; 0.347 µM in [4]; 0.16 µM in [5]; 0.205 µM in test [6]. Further, the GI50 in test [7] was 0.185 µM; in test [8], 0.252 µM; in [9], 0.175 µM; in test [10] it was 0.548 µM. In addition, the TGI in test [1] worked out at 0.307 µM; in test [2], 0.348 µM; in test [3] it was 0.698 µM; in [4], 0.765 µM; in test [5] it was 0.318 µM; in [6] it was 0.408 µM. Besides, the TGI was 0.354 µM in [7], 0.66 µM in test [8], 0.342 µM in test [9] and 1.11 µM in test [10].
For the molecule `COc1ccc(Cn2cc3c(c2-c2cc(OC)c(OC)c(OC)c2)CCc2cnoc2-3)cc1`, the GI50 in test [1] is 0.575 µM; in [2], 0.334 µM; in test [3], 0.309 µM; in test [4], 0.446 µM; in test [5], > 21.4 µM; in test [6] it was 0.394 µM. Besides, the GI50 in test [7] was 0.735 µM; in [8], 0.189 µM; in test [9], 0.26 µM; in test [10], 0.129 µM. The TGI in test [1], in [2], in test [3], in test [4], in [5] and in test [6] was > 100 µM throughout. Further, the TGI was > 100 µM in test [7], 0.484 µM in test [8], > 100 µM in [9] and 0.821 µM in [10].
`CCCCCCCCCCCCCCCC1=NC(C)(C)CN1C(C)C`: the GI50 in test [1] was 1.59 µM; in test [2], 1.13 µM; in test [3], 1.56 µM; in test [4] it was 1.63 µM; in test [5], 1.1 µM; in test [6], 1.12 µM. Also, the GI50 in [7] was 1.61 µM; in [8], 0.824 µM; in test [9] it was 1.52 µM; in test [10], 1.74 µM. Also, the concentration for total growth inhibition (TGI) in test [1] was found to be 2.94 µM; in test [2] it was 2.53 µM; in [3], 2.9 µM; in test [4], 2.98 µM; in test [5], 3.45 µM; in test [6], 2.41 µM. Further, the TGI turned out to be 3.1 µM in test [7], 2.09 µM in test [8], 2.96 µM in test [9] and 3.3 µM in test [10].
With `Cc1cc(I)cc(CN(C)CCCN2CCN(C)CC2)c1O`, the GI50 in test [1] was 18.6 µM; in test [2], 20.3 µM; in [3] it was 75 µM; in test [4], 17 µM; in test [5], 37.9 µM; in [6] it was 40.5 µM. Moreover, the GI50 in test [7] was 24.1 µM; in test [8] it was > 64.5 µM; in test [9] it was 21.7 µM; in test [10], 18.5 µM. Further, the TGI in [1] was > 54.2 µM; in test [2], 47.3 µM; in test [3], > 100 µM; in [4] it was 36.3 µM; in test [5], > 100 µM; in [6] it was > 100 µM. Further, the TGI in [7] was > 68.3 µM; in test [8], > 100 µM; in test [9], > 81.2 µM; in [10] it was 39.6 µM.
For `CC(O)c1cc(C(=O)N[C@@H](C)Cn2ccc(-c3ccc(C#N)c(Cl)c3)n2)n[nH]1` (stereo not given in full), the GI50 in test [1] is > 100 µM; in [2] it was 44.9 µM; in test [3] it was > 100 µM; in test [4], > 100 µM; in test [5], 26.5 µM; in [6], 78.8 µM. Further, the GI50 in test [7] was 53.3 µM; in test [8], 47.3 µM; in [9], > 100 µM; in test [10], 23.9 µM. The TGI in test [1], in test [2], in [3], in test [4], in test [5] and in test [6] was > 100 µM in each case. Further, the TGI in test [7], in test [8], in test [9] and in test [10] was > 100 µM each time.

Broadly, the GI50 is the concentration at which growth is held to half of that of the control. By TGI is commonly meant the concentration at which net growth stops.
